Type in all cases: cell-based, human
The subject of one assay is p62. Description: Western immunoblotting of autophagy marker p62. Particulars: U87-MG, 12 h treatment +/- 12 h HCQ. The method, then: U87-MG cells were plated at 500,000 cells/well in 6-well plates and allowed to adhere overnight (Falcon). Medium was removed and replaced with fresh medium containing drugs or compounds for the indicated timepoints. Cells were collected after treatment by washing with PBS, harvested with trypsin plus agitation to detach cells, pelleted in a centrifuge and resuspended in PBS to wash. Cells were transferred to 1.5 mL microcentrifuge tubes, pelleted, and resuspended in RIPA lysis buffer (50 mM Tris pH 8.0, 150 mM NaCl, 1% nonidet P40, 0.5% sodium deoxycholate, and 0.05% SDS) containing 1 mM NaVO4, 1 mM NaF, 1 mM phenylmethylsulfonyl fluoride, 0.1 μg/mL antipain, 1 μM aprotinin, 100 μM benzamidine HCl, 0.1 μg/mL leupeptin, 0.1 μg/mL pepstatin, and 0.1 μg/mL soybean trypsin inhibitor. Protein was quantified using a BCA assay kit (Pierce). 50 μg of protein was prepared in 1× Laemmli sample buffer (50 mM Tris pH 6.8, 0.02% w/v bromophenol blue, 2% w/v SDS, 10% v/v glycerol, 1% v/v beta-mercaptoethanol, 12.5 mM EDTA) and separated by SDS-PAGE on a 4-15% polyacrylamide gradient gel (Bio-Rad). […]

The test system of the next assay is U87-MG cells. The experiment in a line: Hoechst cell death viability assay, U87-MG. On the procedure:
Cells were plated at 2,500 cells/well in 96-well plates and allowed to adhere overnight. Medium was removed and replaced with media containing compound starting at 100 μM, followed by 2-fold serial dilutions to generate a 10-point range of concentrations normalized with DMSO; one row was treated with DMSO as a control. Cells were incubated for the indicated timepoints. Upon collection, media was removed, cells were rinsed with PBS, and stored at −80° C. until all plates were collected. To process cells, plates were thawed with PBS, incubated with 1× saline-sodium citrate (SSC) buffer with 0.02% sodium dodecyl sulfate (SDS) for 1 hour at 37° C., followed by staining with 1 μg/mL Hoechst 33258 (Pierce). […] using a Spectramax M2 at an excitation of 355 nm and an emission of 460 nm, and absorbance was normalized to DMSO. Each experiment was repeated 2-3 times with 4 technical replicates per experiment.

The next assay deals with cleaved caspase-3. The experiment in a line: Immunofluorescence staining for cleaved caspase-3. Particulars: U87-MG, 2 μM, 48 h. On the procedure:
U87-MG cells were plated at a concentration of 50,000 cells/well onto precoated poly-D-lysine (PDL) coverslips (Neuvitro) in 24-well plates (Falcon) and allowed to adhere overnight. Medium was removed and replaced with treatment-laced media normalized to DMSO, and cells were treated for the indicated timepoints. At the time of collection, cells were washed with PBS and fixed with 4% paraformaldehyde without methanol (EMS) or 100% methanol (Fischer). Coverslips were washed with Tween20-containing PBS (PBST; Fischer). Following permeabilization with 0.5% Triton X-100 in PBS (Fischer), coverslips were blocked for 1 h at room temperature in IF Buffer (0.05% azide, 0.2% Triton X-100, 2% Normal Goat Serum or, for 8-OHG, Normal Donkey Serum). The following primary antibodies were used for 1 hour at room temperature unless specified: AlexaFluor 488 pre-conjugated anti-γ-H2AX (N1-431) mouse monoclonal (30 minutes; BD Biosciences), anti-cleaved caspase 3 (Asp175) rabbit polyclonal (Cell Signaling), anti-SQSTM1/p62 (D-3) mouse monoclonal (Santa Cruz), anti-8-Hydroxyguanosine goat polyclonal (1:200; Millipore), anti-LAMP1 (D4O1S) mouse monoclonal (O/N at 4° C.; Cell Signaling), anti-BNIP3L/Nix (D4R4B) rabbit monoclonal (O/N at 4° C.; Cell Signaling), anti-FLAG (M2) mouse monoclonal (2 hours at 37° C.; Sigma-Aldrich). […]

The values that follow come from US20220326218A1, “COMPOSITION AND METHOD FOR INHIBITING BORC COMPLEX TO TREAT CANCERS WITH NF1 DEFICIENCY AND DYSREGULATED RAS SIGNALING” (THE TRUSTEES OF DARTMOUTH COLLEGE, priority 2019, published 2022).

The structures appear in SMILES notation. Where only a bound is given, the exact number is not on record here.

`Cn1cnnc1S/C=C/C(=O)c1ccc(F)cc1` [Y102]: the “p62 expression (western immunoblotting)” value in the assay on p62 is “increased”. Besides, in the assay on U87-MG cells, the “growth inhibition, acute treatment of 2 hours compared to continuous treatment for 72 hours” value is given as “same degree of growth inhibition” and the “reversibility of effects after a 2 hour treatment” value is given as “irreversible”. In addition, in the assay on U87-MG cells (continuous treatment, seven days, normalized to day zero plating), the “concentration from which cell proliferation was inhibited” value is ≥ 3.125 µM. The “sensitivity of NF1-deficient cell line to treatment” value in the assay on U87-MG cells (up to 7 days, 100 μM to 0.039 μM, Hoechst 33258) is listed as “sensitive”. Moreover, the “amount of cleaved caspase-3 versus vehicle control” value with cleaved caspase-3 is reported as “No difference”.
